EP0155934B1, “Pharmaceutical compositions for treating androgen-related disorders in humans” (Duke University, priority 1983, dated 1985)

Experiments:
5α-Reductase = assay: Preincubation of enzyme with inhibitor and NADPH, tenfold dilution, then assay for 5a-reductase activity; type: biochemical; settings: for manner of combination with / inactivation of the enzyme: in the presence of the co-factor NADPH; for Picomol Testosterone reduced/mg protein in 45 min + SEM: testosterone 5x10^-8, NADPH 5x10^-4
Description: (§1) The compounds of the present invention represent an important advance over progestrone and derivatives thereof since they are irreversible inhibitors of the enzyme 5a-reductase. Employing the assay of R. J. Moore and J. D. Wilson [Methods in Enzymology, Vol. XXXVI, Academic Press, N.Y., Ed. W. O'Malley and G. Hardman, p.

[1] = topical administration of a 0.5% solution in aqueous ethanol; cited from earlier work
[2] = system: cell-culture preparations of human prostate; settings: thereby inhibiting growth of the tissue; cited from earlier work
enzyme 5a-reductase = assay: 5a-reductase inhibition, assay of R. J. Moore and J. D. Wilson; type: biochemical; settings: compared with progesterone
Description: as §1

5a-reductase = assay: Time course of inactivation of 5a-reductase after incubation with NADPH and inhibitor (saturation kinetics); type: biochemical; settings: Fig. 1
Experimental: The time course of inactivation of 5a-reductase following incubation of the enzyme with NADPH and 17a-acetoxy-6-methyleneprogesterone is shown in Fig. 1.
When these rate constants are plotted (as the t 1/2's) against the reciprocal of the inhibitor concentrations, a straight line i obtained with a positive intercept on the y-axis, indicating a saturation phenomenon (Fig. 2). […] The rate constant for this step (kcat) is 4.8 x 10-^3 s-'.

| SMILES | manner of combination with / inactivation of the enzyme (5α-Reductase) | enzyme inactivation on preincubation (5α-Reductase; similar preincubation of the enzyme (with NADPH)) | males with acne with an important decrease in sebum secretion [1] | inhibition of the enzyme [2] | potency as inhibitors of the enzyme (enzyme 5a-reductase) | Picomol Testosterone reduced/mg protein in 45 min + SEM (5α-Reductase; A: preincubation 15 min with inhibitor 5x10^-7 M and NADPH 6x10^-5, assay: inhibitor 5x10^-8 M, n = 6) | Picomol Testosterone reduced/mg protein in 45 min + SEM (5α-Reductase; B: preincubation 15 min without inhibitor, NADPH 6x10^-5, assay: inhibitor 5x10^-8 M, n = 6) | Picomol Testosterone reduced/mg protein in 45 min + SEM (5α-Reductase; C: preincubation 15 min without inhibitor and without NADPH, assay: inhibitor 5x10^-8 M, n = 6) | Picomol Testosterone reduced/mg protein in 45 min + SEM (5α-Reductase; D: preincubation 15 min with inhibitor 5x10^-7 M, no NADPH, assay: inhibitor 5x1-^-8 M, n = 6) | Picomol Testosterone reduced/mg protein in 45 min + SEM (5α-Reductase; F: no preincubation, assay: inhibitor 5x10^-8 M, n = 4) | enzyme activity lost (5α-Reductase; preincubation with inhibitor and NADPH, diluting tenfold, assaying for 5a-reductase activity) [%] | time course of inactivation of the enzyme (5a-reductase) |
| --- | --- | --- | --- | --- | --- | --- | --- | --- | --- | --- | --- | --- |
| CC(=O)[C@H]1CC[C@H]2[C@@H]3CCC4=CC(=O)CC[C@]4(C)[C@H]3CC[C@]12C [Progesterone, reference compound] | competitive and reversible | does not result in enzyme inactivation | 45/53 | strongly inhibits |  |  |  |  |  |  |  |  |
| C=C1C[C@H]2[C@@H]3CC[C@H](C(C)=O)[C@@]3(C)CC[C@@H]2[C@@]2(C)CCC(=O)C=C12 [6-methyleneprogesterone] |  |  |  |  | equipotent with progesterone |  |  |  |  |  |  |  |
| C=C1C[C@@H]2[C@H](CC[C@@]3(C)[C@H]2CC[C@]3(OC(C)=O)C(C)=O)[C@@]2(C)CCC(=O)C=C12 [17a-acetoxy-6-methyleneprogesterone, 17-Acetoxy-6-methylene-4-pregnen-3,20-dione] | irreversible |  |  |  | equipotent with progesterone | 0.71±0.018n = 6 Picomol Testosterone reduced/mg protein in 45 min | 3.0 ±0.26n = 6 Picomol Testosterone reduced/mg protein in 45 min | 2.83±0.09n = 6 Picomol Testosterone reduced/mg protein in 45 min | 2.63±0.18n = 6 Picomol Testosterone reduced/mg protein in 45 min | 3.14±0.20n = 4 Picomol Testosterone reduced/mg protein in 45 min | 75 | pseudo first-order kinetics |
